We go through one compound from ChEMBL document CHEMBL1123329, “Aromatase inhibitors. Synthesis and evaluation of mammary tumor inhibiting activity of 3-alkylated 3-(4-aminophenyl)piperidine-2,6-diones” (J Med Chem, 1986).

Experiment [1] is filed under the species Rattus norvegicus. The format is functional. Particulars: dose 20 mg/kg.
The species entered for experiment [2] is Rattus norvegicus. The format is functional. The note with it: dose 20 mg/kg. This is another data set of the same source.

Values joined by “and” are separate entries in the source; they are usually repeats but may differ in a detail not shown here. Equal values may be shown once.

For the compound `C[C@]12CC[C@H]3[C@@H](CCC4=CC(=O)CC[C@@]43C)[C@@H]1CC[C@@H]2O` [TESTOSTERONE], in the experiment listed under Rattus norvegicus [1], the “Change of tumor area” value is -37% and -24% and -29%. Moreover, in the experiment listed under Rattus norvegicus [2], the Uterine weight effect was 23.3 and 29.3 and 34.7.
